Test results from patent publication US5593970A, “Heterocyclic anthracycline analogs” (priority 1994, dated 1997).
Where “and” joins values, the source holds several entries; their conditions need not be identical. Equal values may be shown once. Read-outs that look alike come from different tables or passages of the source.

Key:
CCRF-CEM = test: NCI sulforhodamine B assay; type: cell-based; conditions: Homo sapiens, 48 h, read-out: Log10 LC50 (converted)
Protocol: The method consists of incubating varying concentrations of the drug with an inoculum of cells for two days. […] The 57 cell lines included two mouse leukemia lines (P388 parental and adriamycin resistant) and 56 human cell lines.

HCT-116 = test: NCI sulforhodamine B assay; type: cell-based; conditions: Homo sapiens
Protocol: (§1) These assays were carried out at the Developmental Therapeutics Program, Division of Cancer Treatment, National Cancer Institute (Bethesda, Md., U.S.A.). The method consists of incubating varying concentrations of the drug with an inoculum of cells for two days. […] The 57 cell lines included two mouse leukemia lines (P388 parental and adriamycin resistant) and […] human cell lines.
(§2) It should be noted that the first two parameters (GI50 and TGI) relate to antiproliferation effects while the third one (LC50) indicates true cytotoxicity. A value of -4 or greater is considered to denote resistance (inactivity).

K-562 = test: NCI sulforhodamine B assay; type: cell-based; conditions: Homo sapiens, K562, 48 h, read-out: Log10 TGI (converted)
Protocol: as §1, §2

MOLT-4 = test: NCI sulforhodamine B assay; type: cell-based; conditions: Homo sapiens, MOLT-4, 48 h; read-out: Log10 TGI (converted)
Protocol: as §1, §2

OVCAR-3 = test: NCI sulforhodamine B assay; type: cell-based; conditions: Homo sapiens, read-out: Log10 GI50 (converted)
Protocol: as §1, §2

OVCAR-8 = test: NCI sulforhodamine B assay; type: cell-based; conditions: Homo sapiens, read-out: Log10 GI50 (converted)
Protocol: as §1, §2

P388 = test: NCI sulforhodamine B assay; type: cell-based; conditions: Mus musculus, P388, 48 h
Protocol: as §1, §2

SNB-78 = test: NCI sulforhodamine B assay; type: cell-based; conditions: Homo sapiens, SNB-78, 48 h, read-out: Log10 LC50 (converted)
Protocol: as §1, §2

XF-498 L = test: NCI sulforhodamine B assay; type: cell-based; conditions: Homo sapiens
Protocol: as §1, §2

HCC-2998 = test: NCI sulforhodamine B assay; type: cell-based, human
Protocol: as §1, §2

HOP-18 = test: NCI sulforhodamine B assay; type: cell-based, human
Protocol: as §1, §2

NCl-H23 = test: NCI sulforhodamine B assay; type: cell-based, human
Protocol: as §1, §2

SF-295 = test: NCI sulforhodamine B assay; type: cell-based, human
Protocol: as §1, §2

SF-539 = test: NCI sulforhodamine B assay; type: cell-based, human
Protocol: as §1, §2

SK-MEL-28 = test: NCI sulforhodamine B assay; type: cell-based, human
Protocol: as §1, §2

SK-MEL-2 = test: NCI sulforhodamine B assay; type: cell-based, human
Protocol: as §1, §2

SNB-19 = test: NCI sulforhodamine B assay; type: cell-based, human; conditions: for GI50: read-out: Log10 GI50 (converted)
Protocol: as §1, §2

SNB-75 = test: NCI sulforhodamine B assay; type: cell-based, human
Protocol: as §1, §2

UACC-257 = test: NCI sulforhodamine B assay; type: cell-based, human
Protocol: as §1, §2

UACC-62 = test: NCI sulforhodamine B assay; type: cell-based, human
Protocol: as §1, §2

P388/ADR = test: NCI sulforhodamine B assay; type: cell-based, mouse
Protocol: as §1, §2

tumor cell lines = conditions: tumor cell line panel, 48 h
Colon = conditions: colon cancer cell lines, 48 h
CNS = conditions: cns cancer cell lines, 48 h
Melanoma = conditions: melanoma cell lines, 48 h

COC(=O)C1CC2=C(C(=O)c3c(cc4ccccc4c3O)C2=O)C(O[C@H]2C[C@H](NC(=O)C(F)(F)F)[C@H](O)[C@H](C)O2)O1 (mixture of isomers) [BCH-242, (1'S,1R,3S) and (1'S, 1S,3R)-Methyl[11-hydroxy-1-2',3',6'-trideoxy-3-trifluroacetamido-L-lyxohexopyranose)-5,12-dioxo-3,4,5,12-tetrahydroanthraceno[2,3-c]pyran-3-yl]formate]
CC50 (CCRF-CEM): > 100 µM | CC50 (HCT-116; HCT-116, 48 h, read-out: Log10 LC50 (converted)): 0.933 µM | IC100 (HCT-116; HCT-116, 48 h, read-out: Log10 TGI (converted)): 0.355 µM | GI50 (HCT-116; HCT-116, read-out: Log10 GI50 (converted)): 0.132 µM | IC100 (K-562): 4.47 µM | IC100 (MOLT-4): 3.24 µM | GI50 (OVCAR-3; OVCAR-3, OVCAR-3): 1.51 µM | GI50 (OVCAR-3; OVCAR-3): 0.251 µM | GI50 (OVCAR-8; OVCAR-8, OVCAR-8): 0.224 µM | GI50 (OVCAR-8; OVCAR-8): 3.24 µM | CC50 (P388; read-out: Log10 LC50 (converted)): > 100 µM | IC100 (P388; read-out: Log10 TGI): > 100 µM | CC50 (SNB-78): > 100 µM | CC50 (XF-498 L; XF498, 48 h, read-out: Log10 LC50 (converted)): 6.03 µM | IC100 (XF-498 L; XF498, 48 h, XF-498 L, read-out: Log10 TGI (converted)): 3.16 µM | GI50 (XF-498 L; XF498, XF-498 L, read-out: Log10 GI50 (converted)): 1.62 µM | Log10 GI50 (HCC-2998; HCC-2998): -5.92 log molar | GI50 (HCC-2998; Homo sapiens, HCC 2998, HCC-2998, read-out: Log10 GI50 (converted)): 2.34 µM | Log10 GI50 (HOP-18; HOP-18): -5.94 log molar | Log10 TGI (HOP-18; HOP-18): -5.45 log molar | Log10 LC50 (HOP-18; HOP-18, 2880 min): -4.92 log molar | IC100 (HOP-18; Homo sapiens, HOP-18, 48 h, HOP-18, read-out: Log10 TGI (converted)): 4.9 µM | CC50 (HOP-18; Homo sapiens, HOP-18, 48 h, read-out: Log10 LC50, HOP-18 (converted)): 16.6 µM | GI50 (HOP-18; Homo sapiens, HOP-18, HOP-18, read-out: Log10 GI50 (converted)): 1.91 µM | IC100 (NCl-H23; Homo sapiens, 48 h, NCl-H23, read-out: Log10 TGI (converted)): 3.24 µM | CC50 (NCl-H23; Homo sapiens, NCI-H23, 48 h, read-out: Log10 LC50, NCl-H23 (converted)): 5.89 µM | Log10 GI50 (NCl-H23; NCl-H23): -5.99 log molar | Log10 TGI (NCl-H23; NCl-H23): -5.65 log molar | Log10 LC50 (NCl-H23; NCl-H23, 2880 min): -5.31 log molar | IC100 (SF-295; Homo sapiens, SF-295, 48 h, SF-295, read-out: Log10 TGI (converted)): 7.08 µM | GI50 (SF-295; Homo sapiens, SF-295, SF-295, read-out: Log10 GI50 (converted)): 2.4 µM | Log10 GI50 (SF-295; SF-295): -5.70 log molar | Log10 TGI (SF-295; SF-295): -5.41 log molar | IC100 (SF-539; Homo sapiens, SF-539, 48 h, SF-539, read-out: Log10 TGI (converted)): 4.37 µM | CC50 (SF-539; Homo sapiens, SF-539, 48 h, read-out: Log10 LC50, SF-539 (converted)): 9.33 µM | GI50 (SF-539; Homo sapiens, SF-539, SF-539, read-out: Log10 GI50 (converted)): 2.04 µM | Log10 GI50 (SF-539; SF-539): -5.90 log molar | Log10 TGI (SF-539; SF-539): -5.60 log molar | Log10 LC50 (SF-539; SF-539, 2880 min): -5.30 log molar | CC50 (SK-MEL-28; Homo sapiens, SK-MEL-28, 48 h, read-out: Log10 LC50, SK-MEL-28 (converted)): 7.76 µM | Log10 LC50 (SK-MEL-28; SK-MEL-28, 2880 min): -5.37 log molar | CC50 (SK-MEL-2; Homo sapiens, SK-MEL-2, 48 h, read-out: Log10 LC50, SK-MEL-2 (converted)): 5.75 µM | Log10 LC50 (SK-MEL-2; SK-MEL-2, 2880 min): -5.39 log molar | CC50 (SNB-19; Homo sapiens, SNB-19, 48 h, read-out: Log10 LC50, SNB-19 (converted)): 36.3 µM | GI50 (SNB-19; Homo sapiens, SNB-19, SNB-19): 3.8 µM | GI50 (SNB-19; Homo sapiens, SNB-19): 2.29 µM | Log10 LC50 (SNB-19; SNB-19, 2880 min): -4.65 log molar | IC100 (SNB-75; Homo sapiens, SNB-75, 48 h, SNB-75, read-out: Log10 TGI (converted)): 8.71 µM | CC50 (SNB-75; Homo sapiens, SNB-75, 48 h, read-out: Log10 LC50, SNB-75 (converted)): 30.2 µM | GI50 (SNB-75; Homo sapiens, SNB-75, SNB-75, read-out: Log10 GI50 (converted)): 2.95 µM | Log10 GI50 (SNB-75; SNB-75): -5.63 log molar | Log10 TGI (SNB-75; SNB-75): -5.25 log molar | Log10 LC50 (SNB-75; SNB-75, 2880 min): -4.73 log molar | CC50 (UACC-257; Homo sapiens, UACC-257, 48 h, read-out: Log10 LC50, UACC-257 (converted)): 6.61 µM | Log10 LC50 (UACC-257; UACC-257, 2880 min): -5.47 log molar | IC100 (UACC-62; Homo sapiens, UACC-62, 48 h, UACC-62, read-out: Log10 TGI (converted)): 3.16 µM | CC50 (UACC-62; Homo sapiens, UACC-62, 48 h, read-out: Log10 LC50, UACC-62 (converted)): 5.62 µM | Log10 TGI (UACC-62; UACC-62): -5.77 log molar | Log10 LC50 (UACC-62; UACC-62, 2880 min): -5.37 log molar | Log10 LC50 (P388/ADR; 2880 min): > -4.00 log molar | CC50 (P388/ADR; Mus musculus, 48 h, read-out: Log10 LC50, P388/ADR (converted)): 69.2 µM | GI50 (P388/ADR; Mus musculus, read-out: Log10 GI50 (converted)): 2.34 µM and 0.324 µM

Methyl(11-hydroxy-5,12-dioxo-3,4,5,12-tetrahydroanthraceno[2,3-c]pyran-3-yl)ketone and Methyl(5-hydroxy-5,12-dioxo-3,4,5,12-tetrahydroanthraceno[2,3-c]pyran-3-yl)ketone [BCH-687]
Log10 LC50, Mean / MG-MID (tumor cell lines): -4.10 log molar | Average LOG10 LC50 (Colon): -4.25(± 0.09) log molar | Average LOG10 LC50 (CNS): > -4.15 log molar | Average LOG10 LC50 (Melanoma): -4.28(± 0.09) log molar
